Laboratory results published in ChEMBL document CHEMBL1201862, “PubChem BioAssay data set” (2004).
Where “and” joins values, the source holds several entries; their conditions need not be identical. Equal entries are not always repeated. Calls of active or inactive are those of the source.

Key:
[1] = target: Lytic switch protein BZLF1 (Epstein-Barr virus (strain B95-8) (HHV-4) (Human herpesvirus 4), UniProt P03206); assay: EBV ZTA inhibitors, dose response, counter-screen for EBNA-1 inhibitor project, biochemical, fluorescence polarization, Epstein-Barr virus, 1536-well (AID 2377); parameters: species or system human gammaherpesvirus 4;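 further: fluorescence polarization of Cy5-labelled ZRE DNA probe bound by purified Zta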
[2] = target: Epstein-Barr nuclear antigen 1 (Epstein-Barr virus (strain B95-8) (HHV-4) (Human herpesvirus 4), UniProt P03211); assay: EBNA-1 inhibitors, dose response, biochemical, fluorescence polarization, 1536-well (AID 2381); parameters: species or system human gammaherpesvirus 4;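 further: fluorescence polarization of a Cy5 DNA probe bound by EBNA-1 protein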
Bcl-2-related protein A1 [3] = target: T1, Bcl-2-related protein A1 (Mus musculus, UniProt Q07440); assay: Bfl-1 inhibitors blocking BH3 peptide binding, confirmation, biochemical, TR-FRET, mouse Bfl-1 (AID 621);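 further: TR-FRET binding of GST-Bfl-1 to FITC-labelled Bid peptide via terbium antibody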
T1 sequence (Q07440 whole entry): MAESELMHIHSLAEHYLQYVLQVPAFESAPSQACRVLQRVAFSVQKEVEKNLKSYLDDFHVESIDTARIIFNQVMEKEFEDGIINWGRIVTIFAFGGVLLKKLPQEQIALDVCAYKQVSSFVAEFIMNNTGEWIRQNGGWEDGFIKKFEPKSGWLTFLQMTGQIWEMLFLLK

Bcl-2-related protein A1 [4] = target: T1, Bcl-2-related protein A1; assay: Bfl-1 binding inhibitors, SAR follow-up, biochemical, fluorescence polarization (AID 1070)
A-375 = assay: MITF: Counter assay: A375 proliferation Measured in Cell-Based System Using Plate Reader - 2084-03_Inhibitor_Dose_DryPowder_Activity. [Related pubchem assays (depositor defined):AID488944]; format: functional; conditions: Homo sapiens
[5] = inhibitors of intracellular T. cruzi replication, confirmation, NIH3T3 host cells, beta-gal luminescence (AID 2044); format: functional, cell-based;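 further: intracellular parasites grown in NIH/3T3 mouse fibroblasts as host cells; luminescent beta-galactosidase reporter signal from transgenic T. cruzi replicating inside host cells; inhibitors lower the luminescence signal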
[6] = C. albicans growth with fluconazole, confirmation, fluorescence, retest (AID 2467); format: functional, cell-based
cells [7] = assay: cells
[8] = target: T2, Ubiquitin-conjugating enzyme E2 N (Homo sapiens, UniProt P61088); format: functional;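 further: Dose-response confirmation in a TR-FRET assay detecting UBC13-driven polyubiquitin chain formation, inhibition measured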
T2 sequence (P61088 whole entry): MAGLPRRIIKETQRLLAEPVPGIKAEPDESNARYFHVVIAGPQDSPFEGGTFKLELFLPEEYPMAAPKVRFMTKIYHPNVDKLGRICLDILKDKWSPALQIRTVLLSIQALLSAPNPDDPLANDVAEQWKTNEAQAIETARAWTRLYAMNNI

INS1 = assay: beta cell apoptosis inhibitors, cytokine rescue, dose response, luminescence, retest (AID 449756); format: functional, cell-based;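 further: cell death triggered by IL-1 beta plus TNF-alpha plus IFN-gamma mixture; protective hits raise ATP signal compared with cytokine alone wells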
[9] = target: T3, Microphthalmia-associated transcription factor (Homo sapiens, UniProt O75030); assay: TRPM1 promoter luciferase signal decrease, dose response, MITF inhibitor project, cell-based, SK-MEL-5, cherry-picked, set 3 (AID 493073); format: functional
T3 sequence (O75030 whole entry): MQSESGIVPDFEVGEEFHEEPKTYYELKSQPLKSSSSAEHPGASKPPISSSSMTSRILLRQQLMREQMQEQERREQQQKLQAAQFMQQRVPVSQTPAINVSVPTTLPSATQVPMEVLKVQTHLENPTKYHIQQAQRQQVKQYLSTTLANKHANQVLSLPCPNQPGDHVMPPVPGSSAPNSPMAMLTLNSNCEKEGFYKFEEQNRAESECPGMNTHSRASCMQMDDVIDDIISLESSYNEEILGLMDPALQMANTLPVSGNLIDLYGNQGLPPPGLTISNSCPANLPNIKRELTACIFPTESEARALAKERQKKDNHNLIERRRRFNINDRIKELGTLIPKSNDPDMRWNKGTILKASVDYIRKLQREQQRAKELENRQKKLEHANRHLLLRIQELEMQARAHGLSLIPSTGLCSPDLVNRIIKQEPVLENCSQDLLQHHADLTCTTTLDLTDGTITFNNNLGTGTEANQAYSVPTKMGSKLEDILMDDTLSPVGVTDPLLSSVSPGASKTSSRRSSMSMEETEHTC

[10] = cytotoxicity toward NIH3T3 fibroblasts, dose response, counter-screen, cell-based, ATP luminescence, mouse fibroblasts (AID 2010); format: functional;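 further: cells exposed to compound for about 90 hours before reading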
[11] = target: Glyceraldehyde-3-phosphate dehydrogenase (Homo sapiens, UniProt P04406)
Estrogen receptor = Estrogen receptor (Homo sapiens, UniProt P03372);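 further: potency for inhibiting coactivator peptide recruitment to the receptor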
[12] = target: Protein-tyrosine kinase 2-beta (Homo sapiens, UniProt Q14289);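 further: potency of inhibitors of PYK2 kinase phosphorylation of poly-GT substrate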
[13] = cytotoxicity toward DRD oncogenic fibroblasts, dose response, cell-based, non-viral oncogenic, luminescence (AID 1934); format: functional; conditions: Homo sapiens
BJ [14] = assay: cytotoxicity toward BJ-TERT fibroblasts, dose response, cell-based, RAS-independent, luminescence (AID 1933); format: functional; conditions: Homo sapiens
BJ [15] = assay: cytotoxicity toward BJ-TERT-LT-ST fibroblasts, dose response, cell-based, RAS-independent, luminescence (AID 1935); format: functional; conditions: Homo sapiens;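 further: BJ fibroblasts immortalized with TERT plus LT and ST oncogenes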
BJ [16] = assay: cells; format: functional, cell-based; conditions: Homo sapiens
[17] = target: T4, Tyrosine-protein phosphatase non-receptor type 5 (Homo sapiens, UniProt P54829); assay: STEP phosphatase inhibitors, confirmation, biochemical, fluorescence intensity, uHTS hits (AID 602372); format: functional; conditions: read-out: IC50_Mean
T4 sequence (P54829 whole entry): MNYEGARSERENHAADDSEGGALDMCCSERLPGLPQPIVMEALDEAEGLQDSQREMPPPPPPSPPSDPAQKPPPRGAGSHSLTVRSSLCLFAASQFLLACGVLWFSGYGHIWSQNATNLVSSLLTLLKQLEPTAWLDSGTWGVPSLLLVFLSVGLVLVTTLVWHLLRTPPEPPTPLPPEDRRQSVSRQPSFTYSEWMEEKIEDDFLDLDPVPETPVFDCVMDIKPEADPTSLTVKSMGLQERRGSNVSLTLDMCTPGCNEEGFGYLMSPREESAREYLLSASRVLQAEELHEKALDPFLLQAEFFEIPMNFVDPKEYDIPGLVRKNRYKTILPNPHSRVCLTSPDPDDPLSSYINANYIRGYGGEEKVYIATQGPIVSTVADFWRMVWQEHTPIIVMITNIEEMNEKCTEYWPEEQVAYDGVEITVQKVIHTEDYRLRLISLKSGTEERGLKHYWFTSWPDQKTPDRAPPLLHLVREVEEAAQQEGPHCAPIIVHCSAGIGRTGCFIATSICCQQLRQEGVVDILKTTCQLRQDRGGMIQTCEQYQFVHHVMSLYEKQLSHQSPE

Melanocortin receptor 4 = Melanocortin receptor 4 (Homo sapiens, UniProt P32245); format: functional, cell-based;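 further: Cell-based assay with luminescence read-out, confirmatory dose-response testing for agonist activity of biased ligands at MC4R; human U2OS cells with tagged receptor and beta-arrestin; potency of agonists that increase receptor coupling to beta-arrestin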
[18] = target: Peroxisome proliferator-activated receptor gamma/Nuclear receptor coactivator 3 (Homo sapiens, UniProt P37231); format: functional;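 further: agonist potency for raising coactivator recruitment to the receptor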
[19] = target: Peroxisome proliferator-activated receptor gamma/Nuclear receptor coactivator 1 (Homo sapiens, UniProt P37231); format: functional;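 further: agonist potency as compounds enhance coactivator SRC-1 recruitment to PPARgamma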
[20] = target: Dual specificity protein phosphatase 3 (Homo sapiens, UniProt P51452); assay: VHR phosphatase inhibition, dose response, selectivity assay for STEP inhibitor project, biochemical (AID 602374); format: functional; conditions: read-out: IC50_Mean
[21] = target: T5, Tyrosine-protein phosphatase non-receptor type 11 (Homo sapiens, UniProt Q06124); assay: SHP2 phosphatase inhibition, dose response, selectivity assay for STEP inhibitor project, biochemical (AID 602367); format: functional; conditions: read-out: IC50_Mean
T5 sequence (Q06124 whole entry): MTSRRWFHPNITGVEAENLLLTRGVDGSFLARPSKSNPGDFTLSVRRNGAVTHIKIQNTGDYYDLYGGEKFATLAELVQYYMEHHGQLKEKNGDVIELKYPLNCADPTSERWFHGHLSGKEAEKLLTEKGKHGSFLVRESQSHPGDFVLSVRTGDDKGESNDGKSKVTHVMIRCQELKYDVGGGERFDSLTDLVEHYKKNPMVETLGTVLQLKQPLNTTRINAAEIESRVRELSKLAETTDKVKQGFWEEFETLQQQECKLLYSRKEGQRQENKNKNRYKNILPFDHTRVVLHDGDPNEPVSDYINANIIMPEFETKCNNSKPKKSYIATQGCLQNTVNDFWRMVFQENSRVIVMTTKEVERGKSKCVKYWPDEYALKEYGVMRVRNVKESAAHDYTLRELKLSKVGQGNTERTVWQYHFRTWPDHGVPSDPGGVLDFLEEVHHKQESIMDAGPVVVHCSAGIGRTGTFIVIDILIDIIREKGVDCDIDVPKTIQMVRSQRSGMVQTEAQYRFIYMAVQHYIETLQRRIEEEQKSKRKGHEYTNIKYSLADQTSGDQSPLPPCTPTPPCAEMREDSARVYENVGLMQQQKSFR

[22] = target: Peroxisome proliferator-activated receptor gamma/Nuclear receptor coactivator 2 (Homo sapiens, UniProt P37231); format: functional;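 further: agonist potency for raising coactivator recruitment to the receptor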
Estrogen receptor beta [23] = target: T6, Estrogen receptor beta (Homo sapiens, UniProt Q92731); assay: ERβ–SRC-3 coactivator interaction inhibitors, confirmation, orthogonal assay, biochemical, ELISA, streptavidin-HRP readout (AID 1060)
Estrogen receptor beta [24] = target: T6, Estrogen receptor beta
cells [25] = format: functional, cell-based; conditions: HEK-CNG
[26] = target: T7, Carboxy-terminal domain RNA polymerase II polypeptide A small phosphatase 1 (Homo sapiens, UniProt Q9GZU7); assay: inhibitors of CTDSP1, concentration-response testing, biochemical assay, absorbance-based, actives from ultra-high-throughput screening (AID 540297); format: functional
T7 sequence (Q9GZU7 whole entry): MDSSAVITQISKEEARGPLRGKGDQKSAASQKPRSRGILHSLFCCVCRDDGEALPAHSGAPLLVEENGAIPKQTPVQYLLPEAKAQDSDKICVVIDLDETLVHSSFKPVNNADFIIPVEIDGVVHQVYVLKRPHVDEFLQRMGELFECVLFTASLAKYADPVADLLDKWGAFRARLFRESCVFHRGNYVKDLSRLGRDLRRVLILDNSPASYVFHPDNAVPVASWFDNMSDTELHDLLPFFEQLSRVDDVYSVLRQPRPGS

Galanin receptor type 3 = target: T8, Galanin receptor type 3 (Homo sapiens, UniProt O60755); assay: Fluorescence-based cell-based primary high throughput dose response assay to identify antagonists of the Galanin Receptor 3 (GalR3).; format: functional
T8 sequence (O60755 whole entry): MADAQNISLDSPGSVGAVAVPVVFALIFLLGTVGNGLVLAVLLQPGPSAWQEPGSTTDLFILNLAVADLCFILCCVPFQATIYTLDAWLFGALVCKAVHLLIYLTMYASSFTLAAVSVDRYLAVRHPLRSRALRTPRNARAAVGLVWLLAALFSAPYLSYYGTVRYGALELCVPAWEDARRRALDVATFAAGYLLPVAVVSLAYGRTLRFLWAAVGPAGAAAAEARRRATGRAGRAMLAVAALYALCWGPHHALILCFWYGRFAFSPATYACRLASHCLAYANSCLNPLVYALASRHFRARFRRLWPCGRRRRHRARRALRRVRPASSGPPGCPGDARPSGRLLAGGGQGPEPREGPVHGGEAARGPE

T6 sequence (Q92731 whole entry): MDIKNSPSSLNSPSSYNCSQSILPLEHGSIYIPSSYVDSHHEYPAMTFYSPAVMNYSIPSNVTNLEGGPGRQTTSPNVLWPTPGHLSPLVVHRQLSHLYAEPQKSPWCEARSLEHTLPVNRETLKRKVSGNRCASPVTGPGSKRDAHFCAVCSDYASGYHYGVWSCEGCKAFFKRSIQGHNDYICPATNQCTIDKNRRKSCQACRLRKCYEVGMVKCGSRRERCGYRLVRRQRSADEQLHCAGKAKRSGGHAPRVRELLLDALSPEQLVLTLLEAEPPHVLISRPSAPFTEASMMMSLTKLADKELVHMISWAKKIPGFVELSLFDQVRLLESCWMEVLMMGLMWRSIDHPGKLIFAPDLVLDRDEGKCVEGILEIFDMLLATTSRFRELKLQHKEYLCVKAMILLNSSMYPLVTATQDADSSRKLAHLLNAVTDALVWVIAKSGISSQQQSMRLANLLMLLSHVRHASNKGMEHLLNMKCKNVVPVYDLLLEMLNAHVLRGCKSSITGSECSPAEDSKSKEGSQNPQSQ
Sequence of Epstein-Barr nuclear antigen 1 (P03211 whole entry): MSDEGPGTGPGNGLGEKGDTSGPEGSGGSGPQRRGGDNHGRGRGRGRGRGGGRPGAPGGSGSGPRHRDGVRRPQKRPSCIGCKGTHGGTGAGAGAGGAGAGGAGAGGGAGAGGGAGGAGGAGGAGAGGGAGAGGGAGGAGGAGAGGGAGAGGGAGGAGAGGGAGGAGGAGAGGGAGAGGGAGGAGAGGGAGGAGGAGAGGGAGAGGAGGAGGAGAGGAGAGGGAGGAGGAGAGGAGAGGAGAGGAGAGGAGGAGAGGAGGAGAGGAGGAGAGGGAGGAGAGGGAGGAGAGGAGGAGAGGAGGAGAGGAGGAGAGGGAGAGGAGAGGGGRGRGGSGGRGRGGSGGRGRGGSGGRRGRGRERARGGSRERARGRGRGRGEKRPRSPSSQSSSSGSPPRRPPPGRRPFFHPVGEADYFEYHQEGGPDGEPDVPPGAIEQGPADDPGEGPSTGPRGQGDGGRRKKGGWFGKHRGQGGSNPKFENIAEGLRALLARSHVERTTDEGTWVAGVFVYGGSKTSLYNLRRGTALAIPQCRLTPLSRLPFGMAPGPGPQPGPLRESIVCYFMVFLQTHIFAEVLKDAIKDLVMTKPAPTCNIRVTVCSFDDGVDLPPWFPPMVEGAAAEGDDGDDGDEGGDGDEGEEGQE
Sequence of Lytic switch protein BZLF1 (P03206 whole entry): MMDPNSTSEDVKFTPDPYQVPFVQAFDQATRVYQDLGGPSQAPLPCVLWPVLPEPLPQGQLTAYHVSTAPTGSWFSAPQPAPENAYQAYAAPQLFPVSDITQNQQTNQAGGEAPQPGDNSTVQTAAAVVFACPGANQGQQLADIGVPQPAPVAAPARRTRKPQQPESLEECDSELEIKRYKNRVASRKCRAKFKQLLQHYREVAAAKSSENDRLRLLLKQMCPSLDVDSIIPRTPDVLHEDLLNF
Sequence of Protein-tyrosine kinase 2-beta (Q14289 whole entry): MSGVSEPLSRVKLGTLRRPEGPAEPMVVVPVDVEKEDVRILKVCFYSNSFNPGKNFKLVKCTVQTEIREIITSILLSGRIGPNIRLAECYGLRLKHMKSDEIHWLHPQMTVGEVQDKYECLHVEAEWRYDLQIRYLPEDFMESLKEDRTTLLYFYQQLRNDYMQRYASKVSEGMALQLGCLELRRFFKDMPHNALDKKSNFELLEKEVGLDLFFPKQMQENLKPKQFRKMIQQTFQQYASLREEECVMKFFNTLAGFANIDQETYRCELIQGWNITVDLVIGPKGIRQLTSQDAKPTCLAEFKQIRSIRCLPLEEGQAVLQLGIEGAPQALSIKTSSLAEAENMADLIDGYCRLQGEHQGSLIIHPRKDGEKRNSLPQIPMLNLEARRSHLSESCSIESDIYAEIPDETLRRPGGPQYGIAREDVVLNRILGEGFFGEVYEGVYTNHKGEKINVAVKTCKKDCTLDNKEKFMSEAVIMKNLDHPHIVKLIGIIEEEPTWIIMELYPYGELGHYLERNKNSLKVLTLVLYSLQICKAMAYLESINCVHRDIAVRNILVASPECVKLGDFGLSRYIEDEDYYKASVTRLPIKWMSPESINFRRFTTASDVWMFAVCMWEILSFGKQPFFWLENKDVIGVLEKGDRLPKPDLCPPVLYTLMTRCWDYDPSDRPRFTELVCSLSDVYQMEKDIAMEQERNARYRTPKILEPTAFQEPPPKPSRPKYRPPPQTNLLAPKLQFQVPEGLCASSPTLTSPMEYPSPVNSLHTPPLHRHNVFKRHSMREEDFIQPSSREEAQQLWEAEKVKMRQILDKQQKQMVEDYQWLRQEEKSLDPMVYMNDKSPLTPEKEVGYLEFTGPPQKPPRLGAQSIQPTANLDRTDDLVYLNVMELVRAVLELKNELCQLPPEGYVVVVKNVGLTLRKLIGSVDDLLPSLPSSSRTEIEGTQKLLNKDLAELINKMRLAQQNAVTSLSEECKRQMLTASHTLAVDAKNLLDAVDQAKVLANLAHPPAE
Sequence of Estrogen receptor (P03372 whole entry): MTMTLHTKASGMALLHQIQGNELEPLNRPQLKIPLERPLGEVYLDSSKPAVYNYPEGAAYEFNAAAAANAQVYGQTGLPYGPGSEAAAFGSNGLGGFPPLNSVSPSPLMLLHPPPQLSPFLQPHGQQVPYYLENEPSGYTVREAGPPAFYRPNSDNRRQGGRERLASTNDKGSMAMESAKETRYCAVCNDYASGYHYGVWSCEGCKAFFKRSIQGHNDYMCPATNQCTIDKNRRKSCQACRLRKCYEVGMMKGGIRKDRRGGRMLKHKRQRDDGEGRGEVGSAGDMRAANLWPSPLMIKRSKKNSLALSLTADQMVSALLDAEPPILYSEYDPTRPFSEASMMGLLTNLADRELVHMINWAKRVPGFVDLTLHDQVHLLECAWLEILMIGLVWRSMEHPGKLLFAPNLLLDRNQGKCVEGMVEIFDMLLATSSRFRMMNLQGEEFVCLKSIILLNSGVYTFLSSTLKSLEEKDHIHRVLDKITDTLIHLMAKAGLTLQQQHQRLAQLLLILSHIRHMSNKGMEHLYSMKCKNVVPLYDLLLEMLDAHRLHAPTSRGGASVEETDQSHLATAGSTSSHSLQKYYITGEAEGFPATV
Sequence of Peroxisome proliferator-activated receptor gamma/Nuclear receptor coactivator 3 (P37231 whole entry): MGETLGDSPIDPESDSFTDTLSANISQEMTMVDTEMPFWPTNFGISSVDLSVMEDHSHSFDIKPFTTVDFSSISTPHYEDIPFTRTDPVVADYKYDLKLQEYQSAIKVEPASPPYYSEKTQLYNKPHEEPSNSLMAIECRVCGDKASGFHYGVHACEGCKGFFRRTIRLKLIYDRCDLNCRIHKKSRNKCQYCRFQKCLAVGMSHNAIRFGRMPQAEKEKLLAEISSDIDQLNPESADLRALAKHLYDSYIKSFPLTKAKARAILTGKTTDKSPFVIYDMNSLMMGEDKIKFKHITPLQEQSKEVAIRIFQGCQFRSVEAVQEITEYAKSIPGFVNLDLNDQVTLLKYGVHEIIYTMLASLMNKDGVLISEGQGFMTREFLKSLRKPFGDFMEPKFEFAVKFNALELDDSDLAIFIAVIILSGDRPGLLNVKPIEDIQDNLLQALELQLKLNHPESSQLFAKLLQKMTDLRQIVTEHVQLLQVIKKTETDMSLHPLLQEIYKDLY
Sequence of Peroxisome proliferator-activated receptor gamma/Nuclear receptor coactivator 3 (Q9Y6Q9 whole entry, further chain): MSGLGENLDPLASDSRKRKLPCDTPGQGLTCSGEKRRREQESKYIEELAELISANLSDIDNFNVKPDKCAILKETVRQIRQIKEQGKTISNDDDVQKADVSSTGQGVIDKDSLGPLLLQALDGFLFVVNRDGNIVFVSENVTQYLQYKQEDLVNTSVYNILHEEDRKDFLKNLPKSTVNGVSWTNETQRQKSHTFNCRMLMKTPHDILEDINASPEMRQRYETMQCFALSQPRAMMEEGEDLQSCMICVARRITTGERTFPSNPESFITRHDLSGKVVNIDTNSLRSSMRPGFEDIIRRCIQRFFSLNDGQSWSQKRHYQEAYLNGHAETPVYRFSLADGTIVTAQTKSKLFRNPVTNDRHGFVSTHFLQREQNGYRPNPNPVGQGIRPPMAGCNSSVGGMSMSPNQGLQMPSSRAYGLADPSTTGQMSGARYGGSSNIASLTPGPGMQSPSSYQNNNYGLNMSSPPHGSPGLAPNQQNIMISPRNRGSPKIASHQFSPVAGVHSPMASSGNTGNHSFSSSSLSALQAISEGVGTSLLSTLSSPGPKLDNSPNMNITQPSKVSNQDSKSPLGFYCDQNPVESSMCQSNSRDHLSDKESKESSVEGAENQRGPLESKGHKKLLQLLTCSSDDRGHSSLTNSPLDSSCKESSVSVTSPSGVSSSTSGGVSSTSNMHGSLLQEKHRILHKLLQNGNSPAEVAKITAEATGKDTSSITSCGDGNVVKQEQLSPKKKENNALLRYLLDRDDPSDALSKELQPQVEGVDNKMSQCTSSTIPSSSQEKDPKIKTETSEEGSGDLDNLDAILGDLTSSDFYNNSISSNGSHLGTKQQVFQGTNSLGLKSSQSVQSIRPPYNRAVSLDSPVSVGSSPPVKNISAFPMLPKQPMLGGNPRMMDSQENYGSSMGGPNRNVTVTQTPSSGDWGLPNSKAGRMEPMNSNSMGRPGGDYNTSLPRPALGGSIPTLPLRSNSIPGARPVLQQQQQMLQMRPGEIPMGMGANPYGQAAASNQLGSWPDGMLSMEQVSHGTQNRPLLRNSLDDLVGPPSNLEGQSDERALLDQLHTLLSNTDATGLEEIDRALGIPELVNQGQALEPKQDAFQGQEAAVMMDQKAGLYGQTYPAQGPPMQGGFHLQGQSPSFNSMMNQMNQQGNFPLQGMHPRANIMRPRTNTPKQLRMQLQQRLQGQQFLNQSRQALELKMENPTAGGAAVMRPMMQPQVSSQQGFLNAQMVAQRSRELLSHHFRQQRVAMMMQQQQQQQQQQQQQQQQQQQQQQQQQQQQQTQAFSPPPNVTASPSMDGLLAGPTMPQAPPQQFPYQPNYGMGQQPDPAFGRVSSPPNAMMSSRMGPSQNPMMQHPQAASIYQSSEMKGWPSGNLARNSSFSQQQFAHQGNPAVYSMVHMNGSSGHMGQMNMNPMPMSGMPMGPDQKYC

O=C(Cn1nnc(-c2ccccc2NC(=O)c2ccccc2)n1)Nc1ccc2c(c1)OCCO2
IC50 [1]: > 111 µM (not active)
IC50 [2]: 16.4 µM (not active)

COc1ncccc1-c1nnn(-c2ccccc2)n1
IC50 (Bcl-2-related protein A1 [3]): > 100 µM (not active)
IC50 (Bcl-2-related protein A1 [4]): > 100 µM (not active)

CC1CCC(C(C)C)C(OC(=O)Cn2c(-c3ccc(Br)cc3)[n+](C)c3ccccc32)C1 (stereo not given)
AC50 (A-375): 36.8 µM (active)
EC50 [5]: < 0.1 µM (active)
EC50 [6]: 227 nM (active) and 290 nM (active)
EC50 (cells [7]): 0.409 µM (active)
IC50 [8]: > 20 µM (inactive)
AC50 (INS1; Rattus norvegicus, INS1): 3.63 µM (active)
AC50 (INS1; ins1): 2.8 µM (active)
AC50 [9]: 7.12 µM (active)
EC50 [10]: > 60 µM (not active)

CCOc1ccc(NC(=O)C(=O)N/N=C\c2ccc(CNS(=O)(=O)c3ccccc3)o2)cc1
IC50 [1]: > 111 µM (not active)
IC50 [2]: 7.23 µM (active)

CN1CCN(C2CC(=O)N(c3ccc(Cl)c(Cl)c3)C2=O)CC1 (stereo not given)
IC50 (Bcl-2-related protein A1 [3]): > 100 µM (not active)
IC50 [11]: > 100 µM (not active)
IC50 (Bcl-2-related protein A1 [4]): > 100 µM (not active)

COc1ccc(C2C=C(c3ccc(Cl)cc3)Nc3nc(NC(C)=O)nn32)cc1 (stereo not given)
IC50 (Estrogen receptor): 21.9 µM (active)

NC(=O)c1ccc(F)cc1
IC50 (Estrogen receptor): > 50 µM (not active)

c1cc2ccc3ccc(CN4CCOCC4)c4ccc(c1)c2c34
IC50 [12]: > 69.5 µM (not active)

COc1ccc(-n2nc(C(=O)NCC(=O)Nc3ccccn3)c3ccccc3c2=O)cc1Cl
EC50 [13]: 28.5 µM (active)
EC50 (BJ [14]): 31.5 µM (active)
EC50 (BJ [15]): > 150 µM (not active)
EC50 (BJ [16]): 21.6 µM (active)
IC50 [17]: 42.3 µM (inactive)
EC50 (Melanocortin receptor 4): > 89.2 µM (inactive)
EC50 [18]: 37.7 µM (not active)
EC50 [19]: 25.8 µM (not active)
IC50 [20]: 3.14 µM (active)
IC50 [21]: 1.98 µM (active)
EC50 [22]: 19.2 µM (not active)
IC50 [12]: > 69.5 µM (not active)

Cc1ccc(S(=O)(=O)Cc2ccc(C(=O)N3CCN(Cc4ccccc4)CC3)o2)cc1
IC50 (Estrogen receptor beta [23]): 19.2 µM (not active)
IC50 (Estrogen receptor beta [24]): 8.83 µM (active)

O=c1cc(CSc2nnc(-c3cccs3)n2Cc2ccccc2)nc2sc3ccccc3n12
IC50 (Estrogen receptor beta [23]): 19.3 µM (not active)
EC50 (cells [25]): > 29.9 µM (inactive)
IC50 [26]: 5.42 µM (active)
IC50 (Estrogen receptor beta [24]): < 1.56 µM (active)
IC50 (Galanin receptor type 3): 0.482 µM (active)
